Results taken from paper PMC8553373 (The Journal of Biological Chemistry, 2021).
“Also recorded” adds a separate entry of the source. Read-outs that look alike come from different tables or passages of the source.

Columns and labels:
SARS-CoV-2 [1] = format: cell-based
Vero e6 cells = conditions: Vero e6, highest 50 μM concentration point
[2] = target: wild-type Nsp9COV19 as substrate of Nsp12COV19 NiRAN domain (Severe acute respiratory syndrome coronavirus 2, UniProt P0DTD1); format: biochemical; conditions: for Nsp9COV19 Cy3-modification, % of the signal of DMSO-only control reactions: 500 μM compound, 15 μM Nsp9COV19, 1 μM Nsp12COV19, triplicate
Vero 81 cells = conditions: Vero 81, highest 50 μM concentration point
SARS-CoV-2 [3] = conditions: cited from earlier work
Nsp9COV19 = Nsp9COV19 (Severe acute respiratory syndrome coronavirus 2, UniProt P0DTD1); parameters: species or system SARS-CoV-2; conditions: native MS; binding ratios after incubation with 50 μM of each compound

C=C1C(=O)[C@]23[C@H](O)[C@H]1CC[C@H]2[C@@]12CO[C@]3(O)[C@@H](O)[C@@H]1C(C)(C)CC[C@@H]2O [Compound 1, Oridonin]
viral titer following SARS-CoV-2 infection (SARS-CoV-2 [1]): reduce viral tite at all time points
viral titer following SARS-CoV-2 infection (SARS-CoV-2 [1]; Calu-3 cells, 15 μM, after 24 h): approximately fivefold reduced
viral titer following SARS-CoV-2 infection (SARS-CoV-2 [1]; Calu-3 cells, 15 μM, later time points (48, 72 h)): not maintained at later time points
effect on cell proliferation (MTT) (Calu-3 cells): no effect on cell proliferation detected
effect on cell proliferation (MTT) (Vero e6 cells): a degree of reduced proliferation
Nsp9COV19 Cy3-modification, % of the signal of DMSO-only control reactions [2]: 20 ± 6%
inhibition of UMPylation reaction (in words) ([2]; UMPylation assays, discussion): significant levels of inhibition
effect on cell proliferation (MTT) (Vero 81 cells): a degree of reduced proliferation
SARS-CoV-2 replication in in vitro cellular assays (SARS-CoV-2 [3]): inhibit SARS-CoV-2 replication

C=C1C(=O)[C@]23[C@H](O)[C@H]1CC[C@H]2[C@@]12CO[C@@]3(O)[C@@H](O)[C@@H]1[C@](C)(COC(C)=O)CC[C@H]2O [Compound 3, Xerophilusin G]
relative Nsp9COV19 binding / affinity (in words) (Nsp9COV19): significantly reduced binding response; also recorded: abrogated binding completely

C=C1C(=O)[C@@]23[C@H](O)C[C@@H]4C(C)(C)CC[C@H](O)[C@@]4(CO)[C@@H]2CC[C@@H]1[C@H]3O [Compound 6, Kamebakaurin]
Nsp9COV19 Cy3-modification, % of the signal of DMSO-only control reactions [2]: ~66%
relative Nsp9COV19 binding / affinity (in words) (Nsp9COV19): some ability to cocomplex with Nsp9COV19 is retained
